Experimental findings from ChEMBL document CHEMBL2311440, “Inhibitors of HIV-1 attachment. Part 8: the effect of C7-heteroaryl substitution on the potency, and in vitro and in vivo profiles of indole-based inhibitors” (Bioorg Med Chem Lett, 2013) are described below.

Data set [1] is described as follows: Half life in human liver microsomes. The format is ADME, Microsome. On the technique in general: Liver microsomes are vesicles of endoplasmic reticulum, rich in cytochrome P450 enzymes.
Data set [2] deals with Human immunodeficiency virus 1. Description: Antiviral activity against T-tropic HIV1 NL4-3 virus by cell culture based assay. The format is functional, organism-based. As to conditions: Human immunodeficiency virus 1, NL4-3.
The test system of data set [3] is Human immunodeficiency virus 1. Description: Antiviral activity against M-tropic HIV1 Bal virus by cell culture based assay. The format is functional, organism-based. The following applies: Human immunodeficiency virus 1, Bal.
Data set [4] in a line: Antiviral activity against T-tropic HIV1 BRU virus by cell culture based assay. As to conditions: Human immunodeficiency virus 1. The format is functional, Human immunodeficiency virus type 1 (BRU ISOLATE).
A short description of data set [5]: Cytotoxicity against human HeLa CD4+ CCR5+ cells after 6 days by XTT assay. The format is cell-based.
The subject of data set [6] is Human immunodeficiency virus 1. Description: Antiviral activity against HIV1 JRFL pseudotyped virus infected in HeLa CD4+ CCR5+ cells by single-cycle viral infectivity assay. The format is functional, organism-based. As to conditions: Human immunodeficiency virus 1, JRFL.
Data set [7] is described as follows: Permeability across human Caco2 cells at pH 6.5. As to conditions: Caco-2, pH 6.5, read-out: permeability. The format is ADME, cell-based.
Data set [8] in a line: Half life in rat at 1 mg/kg, iv. As to conditions: in vivo. The format is ADME, organism-based. Set-up: dose 1 mg/kg, route intravenous.
The nature of data set [9]: Clearance in rat at 1 mg/kg, iv. The format is ADME, organism-based. Set-up: dose 1 mg/kg, route intravenous. The following applies: in vivo.
A short description of data set [10]: Cmax in rat at 5 mg/kg, po. Set-up: dose 5 mg/kg, route oral. The format is ADME, organism-based. As to conditions: in vivo.
Data set [11] in a line: Oral bioavailability in rat at 5 mg/kg. The following applies: in vivo. The format is ADME, organism-based.
Data set [12] can be described thus: Safety index, ratio fo CC50 for human HeLa CD4+ CCR5+ cells to EC50 for HIV1 JRFL. The format is toxicity. The following applies: read-out: Ratio CC50/EC50.

Structures are written as SMILES.

Broadly, the half-life is how long it takes for the measured level to halve. The low end stands for rapid decline, the high end for slow decline. The term EC50 denotes the concentration giving half of the maximal effect. Low values mean greater potency, high ones weaker potency. A word on the CC50: it is the concentration that lowers cell viability or growth by half. `O=C(C(=O)N1CCN(C(=O)c2ccccc2)CC1)c1c[nH]c2cccc(F)c12`: the half-life in data set [1] is more than 100 min. Further, the EC50 in data set [2] is 1500 nM; in data set [3] it was 700 nM; in data set [4], 90 nM; in data set [6] it was 1.24 nM. In [5], the CC50 at 144 h was more than 300 µM.
Turning to `C[C@@H]1CN(C(=O)c2ccccc2)CCN1C(=O)C(=O)c1c[nH]c2c(-c3nn[nH]n3)ccc(F)c12`, in data set [7], the Papp is less than 1.5 ×10⁻⁶ cm/s. The half-life in [1] was more than 100 min. The CC50 at 144 h in data set [5] is more than 300 µM. In addition, the midpoint of the response in [6], the EC50, lay at 0.07 nM.
Turning to `C[C@@H]1CN(C(=O)c2ccccc2)CCN1C(=O)C(=O)c1c[nH]c2c(-c3ncon3)ccc(F)c12`, the CC50 at 144 h in data set [5] was determined as 125 µM. In [6], the response was half-maximal at 0.04 nM (EC50).
As for `COc1ccc(-c2ncon2)c2[nH]cc(C(=O)C(=O)N3CCN(C(=O)c4ccccc4)CC3)c12`, the Papp in data set [7] amounted to 14.8 ×10⁻⁶ cm/s. Further, in data set [1], the half-life was determined as 16 min. For the same molecule, the CC50 at 144 h in data set [5] was 22 µM. This molecule also returned an EC50 in data set [6] of 0.16 nM.
As for `Cc1nnc(-c2ccc(F)c3c(C(=O)C(=O)N4CCN(C(=O)c5ccccc5)CC4)c[nH]c23)[nH]1`, the Papp in [7] was 8.9 ×10⁻⁶ cm/s. In data set [1], this molecule registered a half-life of 25 min. The same molecule had a CC50 at 144 h in data set [5] of 159 µM. In [6], this molecule had a concentration for a half-maximal effect (EC50) of 0.16 nM.
As for `NC(=O)c1nc(-c2ccc(F)c3c(C(=O)C(=O)N4CCN(C(=O)c5ccccc5)CC4)c[nH]c23)no1`, the CC50 at 144 h in data set [5] amounted to 154 µM. The EC50 in data set [6] was 0.1 nM.
On the same counts, the results for `CC(=O)Nc1nc(-c2ccc(F)c3c(C(=O)C(=O)N4CCN(C(=O)c5ccccc5)CC4)c[nH]c23)no1` are 229 µM and 0.1 nM.
On the same counts, the results for `CN(C)c1nc(-c2ccc(F)c3c(C(=O)C(=O)N4CCN(C(=O)c5ccccc5)CC4)c[nH]c23)no1` are 23 µM and 0.3 nM.
Consider `CNc1nc(-c2ccc(F)c3c(C(=O)C(=O)N4CCN(C(=O)c5ccccc5)CC4)c[nH]c23)no1`, for which the CC50 at 144 h in data set [5] amounted to 26 µM. In data set [6], this molecule gave an EC50 of 0.04 nM.
On to `Nc1nc(-c2ccc(F)c3c(C(=O)C(=O)N4CCN(C(=O)c5ccccc5)CC4)c[nH]c23)no1`, for which the Papp in data set [7] is 6.9 ×10⁻⁶ cm/s. The molecule further came in with a half-life in [1] of 17 min. The molecule further returned a CC50 at 144 h in [5] of 43 µM. In [6], this molecule showed an EC50 of 0.0082 nM.
As for `COc1nc(-c2ccc(F)c3c(C(=O)C(=O)N4CCN(C(=O)c5ccccc5)CC4)c[nH]c23)no1`, the CC50 at 144 h in data set [5] was 44 µM. For the same molecule, in [6], the EC50 is 3.55 nM.
As to `Cc1noc(-c2ccc(F)c3c(C(=O)C(=O)N4CCN(C(=O)c5ccccc5)CC4)c[nH]c23)n1`, in [5], the CC50 at 144 h is more than 300 µM. A half-maximal effect in [6] (EC50) was put at 0.094 nM.
The matching figures for `Cc1nc(-c2ccc(F)c3c(C(=O)C(=O)N4CCN(C(=O)c5ccccc5)CC4)c[nH]c23)no1`: 226 µM and 0.06 nM.
`O=C(C(=O)N1CCN(C(=O)c2ccccc2)CC1)c1c[nH]c2c(-c3nc4ccccc4[nH]3)ccc(F)c12` registered a CC50 at 144 h in data set [5] of 11 µM. In [6], this molecule gave an EC50 of 0.53 nM.
On the same counts, the results for `O=C(C(=O)N1CCN(C(=O)c2ccccc2)CC1)c1c[nH]c2c(-c3nc4ccccc4o3)ccc(F)c12` are 27 µM and 0.88 nM.
One may read the clearance as the volume of plasma or blood freed of the substance per unit of time. Lower therefore signals a low capacity for elimination. Usually Cmax stands for the peak of the concentration-time curve. In general, bioavailability refers to dose-corrected exposure relative to a reference, in per cent. Read a high bioavailability as good availability. Take `O=C(C(=O)N1CCN(C(=O)c2ccccc2)CC1)c1c[nH]c2c(-c3nn[nH]n3)ccc(F)c12`: the Papp in data set [7] is 1.7 ×10⁻⁶ cm/s. Moreover, the half-life is more than 200 min in data set [1] and 67 min in data set [8]. In [9], this molecule registered a clearance of 3.1 mL/min/kg. Also, the Cmax in [10] stood at 95 ng/mL. Also, the bioavailability in data set [11] is 2.3%. In addition, the EC50 stood at 9.41 nM in [2], 0.37 nM in data set [3], 6.38 nM in [4] and 0.08 nM in data set [6]. For the same molecule, the CC50 at 144 h in data set [5] is 245 µM.
For the molecule `O=C(C(=O)N1CCN(C(=O)c2ccccc2)CC1)c1c[nH]c2c(-c3nnc[nH]3)ccc(F)c12`, the Papp in data set [7] came to 1.9 ×10⁻⁶ cm/s. The figures for the half-life in data set [1] and in data set [8] were 32 min and 187 min, respectively. The molecule further returned a clearance in [9] of 3.7 mL/min/kg. The Cmax in data set [10] worked out at 369 ng/mL. Further, the bioavailability in data set [11] was 14%. In [5], this molecule gave a CC50 at 144 h of 199 µM. The molecule also returned an EC50 in [6] of 0.03 nM.
`O=C(C(=O)N1CCN(C(=O)c2ccccc2)CC1)c1c[nH]c2c(-c3nnco3)ccc(F)c12` registered a half-life in data set [1] of 10 min. The molecule further had a CC50 at 144 h in data set [5] of more than 300 µM. For the same molecule, in [6], a half-maximal response (EC50) required 0.05 nM.
In the case of `O=C(C(=O)N1CCN(C(=O)c2ccccc2)CC1)c1c[nH]c2c(-c3ncon3)ccc(F)c12`, the Papp in [7] is more than 30 ×10⁻⁶ cm/s. The results for the half-life in [1] and in [8] were 17 min and 120 min, respectively. For the same molecule, in data set [9], the clearance was found to be 3.9 mL/min/kg. In addition, in [10], the Cmax worked out at 2610 ng/mL. Moreover, the bioavailability in data set [11] is 89%. The EC50 in [2] was determined as 8.66 nM; in data set [3] it was 7.61 nM; in data set [4], 3.38 nM; in data set [6] it was 0.05 nM. Besides, the selectivity ratio in data set [12] was 1500. This molecule also returned a CC50 at 144 h in data set [5] of 74 µM.
Turning to `O=C(C(=O)N1CCN(C(=O)c2ccccc2)CC1)c1c[nH]c2c(-c3cnc[nH]3)ccc(F)c12`, the Papp in data set [7] is 3.7 ×10⁻⁶ cm/s. Further, the half-life in [1] stood at 16 min. In addition, in data set [5], the CC50 at 144 h is more than 300 µM. It took 0.06 nM to reach a half-maximal effect in data set [6] (EC50).
`O=C(C(=O)N1CCN(C(=O)c2ccccc2)CC1)c1c[nH]c2c(-c3cnco3)ccc(F)c12`: the Papp in data set [7] came out at 12.2 ×10⁻⁶ cm/s. Besides, the half-life was determined as 2.9 min in data set [1] and 65 min in [8]. In addition, the clearance in data set [9] was determined as 17 mL/min/kg. In [10], this molecule returned a Cmax of 444 ng/mL. Further, the bioavailability in [11] stood at 47%. In addition, the CC50 at 144 h in [5] is more than 300 µM. In addition, the EC50 in data set [6] stood at 0.0054 nM.
In data set [5], `O=C(C(=O)N1CCN(C(=O)c2ccccc2)CC1)c1c[nH]c2c(-c3ncco3)ccc(F)c12` came in with a half-maximal cytotoxic concentration (CC50) at 144 h of 192 µM. For the same molecule, the EC50 in data set [6] was 0.05 nM.
Regarding `O=C(C(=O)N1CCN(C(=O)c2ccccc2)CC1)c1c[nH]c2c(-c3nccs3)ccc(F)c12`, in [5], it took 23 µM to reach half-maximal cytotoxicity (CC50 at 144 h). The molecule also yielded an EC50 in [6] of 0.0067 nM.
The matching figures for `O=C(C(=O)N1CCN(C(=O)c2ccccc2)CC1)c1c[nH]c2c(-c3ccsc3)ccc(F)c12`: 27 µM and 0.01 nM.
The matching figures for `O=C(C(=O)N1CCN(C(=O)c2ccccc2)CC1)c1c[nH]c2c(-c3cccs3)ccc(F)c12`: 5.3 µM and 0.06 nM.
The matching figures for `O=C(C(=O)N1CCN(C(=O)c2ccccc2)CC1)c1c[nH]c2c(-c3cccnc3)ccc(F)c12`: 10 µM and 0.06 nM.
Regarding `O=C(C(=O)N1CCN(C(=O)c2ccccc2)CC1)c1c[nH]c2c(-c3ccccn3)ccc(F)c12`, in data set [5], the CC50 at 144 h is 17 µM. The molecule further displayed an EC50 in [6] of 0.12 nM.
With `COc1ccc(-c2ccc(F)c3c(C(=O)C(=O)N4CCN(C(=O)c5ccccc5)CC4)c[nH]c23)cc1`, the midpoint of cytotoxicity in data set [5], the CC50 at 144 h, lay at 21 µM. This molecule came in with an EC50 in data set [6] of 0.04 nM.
In [5], `O=C(C(=O)N1CCN(C(=O)c2ccccc2)CC1)c1c[nH]c2c(-c3ccccc3)ccc(F)c12` yielded a CC50 at 144 h of 6.8 µM. Also, the EC50 in [6] came out at 0.43 nM.
In [5], `O=C(C(=O)N1CCN(C(=O)c2ccccc2)CC1)c1c[nH]c2ccccc12` displayed a CC50 at 144 h of 275 µM. This molecule also gave an EC50 in data set [6] of 153 nM.
